From patent publication US12098145B2 (Libra Therapeutics, Inc., priority 2022, dated 2024)

What was measured:
TRPML1 = molecular target: T1, TRPML1 (Homo sapiens, UniProt Q9GZU1); assay: Cellular TRPML1 assay (FLIPR, GCaMP6f calcium read-out); type: cell-based; settings: HEKT-REx/GCaMP6f/TRPML1 cells, FLIPR TETRA, kinetic response over 300 seconds; read-out: TRPML1 FLIPR pEC50 (converted)
T1 construct: expressed in transfected cells; host or cells: HEK T-REx cells stably expressing GCaMP6f and TRPML1
Summary of the method: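 HEK T-REx cells stably expressing TRPML1 and GCaMP6f, seeded 24 h before in Optimem + 0.5% FBS. After ~10 min pre-incubation at room temperature, compounds in Ca2+-free Tyrode's buffer were injected on FLIPR Tetra (final DMSO 0.5%). Calcium fluorescence kinetics followed for 300 s.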

TFEB = TFEB translocation assay (TFEB reporter in U2OS cells, imaging); type: cell-based; settings: Homo sapiens; U2OS cell line with TFEB reporter, 2 hours incubation, nucleus to cytoplasm ratio, normalized to Torin-1; read-out: TFEB Translocation pEC50 (converted)
Description: Example B: TFEB Translocation Assay
Reporter TFEB: the reporter is fused to a sequence of monomeric red fluorescent protein.
The reporter TFEB have been stably expressed in U2OS cell line and used as read-out.
Experiments were performed in 384 MTP well format. Cells were seeded in 384-w at a density of 4000 cells/well in 20 μl/well complete growth medium without antibiotics. Twenty-four hours later, cells were treated with compounds and incubated for further 2 hours. Then the cells were imaged and assayed for the response to various compounds using the reporter for TFEB expressed in the cells as readout.
The experiments were performed in a 384-well format according to the following procedure: • 24 h after seeding, cell culture medium was carefully removed and replaced with 20 μl of Opti-MEM (30′ incubation at 37° C. before compound addition) • Then, cells were incubated with compounds diluted in Opti-MEM+0.015% Tween 80 at the desired concentration, with the reference molecule (agonist) Torin-1 at a top concentration of 1 μM (max signal), and with the other reference molecule (agonist) MLSA-5 at top concentration of 20 μM for 2 hours at 37° C. and 5% CO2. The final percentage of DMSO was 0.5% in all the conditions. • Staining of the nuclei was obtained by incubating the cells with 24 μM/well of Hoechst 3342 in standard Tyrode's buffer for 15 min at RT • Then the cells were fixed with PFA 4% for 30 min at RT • After three washes with standard Tyrode's buffer, samples were acquired by recording two fluorescence emission channels (DS-red and blue) at 20× magnification and with at least 3 fields of view per well in an Operetta CLS microscope (PerkinElmer). • Image analysis was performed by using Harmony software (PerkinElmer). The image analysis involved the following steps: flat-field illumination correction, nuclei segmentation, cytoplasm segmentation and calculation of intensity fluorescence in the cytosol and nuclei compartments. Measurements of signal intensity ratio (nucleus to cytoplasm) was used to obtain information on the effects of compounds on the TFEB translocation. • Data from image analysis measurements were finally loaded and analyzed for normalization and fitting procedures in Genedata Screener© software. Data Analysis
Feature: Mean translocation ratio (mean/well)
Data normalization: Stimulator—Neutral control
The GeneData Screener method we have used, normalizes the median of the Stimulator control wells (Torin-1) to 100% and the median of the Neutral control wells (DMSO) to 0% Activity[%]=100*(x−<Min>)/(<“Max”>−<Min>)

T1 sequence (Q9GZU1 whole entry): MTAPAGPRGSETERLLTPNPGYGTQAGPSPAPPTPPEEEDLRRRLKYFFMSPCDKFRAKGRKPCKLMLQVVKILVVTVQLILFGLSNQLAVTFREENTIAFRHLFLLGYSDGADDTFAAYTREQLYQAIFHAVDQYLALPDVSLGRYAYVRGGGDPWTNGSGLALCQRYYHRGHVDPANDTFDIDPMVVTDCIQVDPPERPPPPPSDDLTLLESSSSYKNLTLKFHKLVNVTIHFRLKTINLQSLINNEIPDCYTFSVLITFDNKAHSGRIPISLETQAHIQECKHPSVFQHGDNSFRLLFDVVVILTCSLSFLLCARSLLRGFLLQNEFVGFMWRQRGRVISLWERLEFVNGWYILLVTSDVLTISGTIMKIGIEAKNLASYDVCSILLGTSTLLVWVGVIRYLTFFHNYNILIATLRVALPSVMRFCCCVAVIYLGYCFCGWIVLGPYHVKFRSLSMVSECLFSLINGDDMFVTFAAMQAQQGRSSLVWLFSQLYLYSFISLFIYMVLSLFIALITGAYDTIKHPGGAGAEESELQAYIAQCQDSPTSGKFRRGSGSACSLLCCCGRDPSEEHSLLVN

Row | SMILES | EC50 (TRPML1) | EC50 (TFEB)
1 | O=C(Nc1ccc(OC2CCCC2(F)F)c(F)c1)c1nc(N2CCC(CO)C2)oc1CC(F)(F)F (centres unmarked) [Example 3, N-(4-((2,2-difluorocyclopentyl)oxy)-3-fluorophenyl)-2-(3-(hydroxymethyl)pyrrolidin-1-yl)-5-(2,2,2-trifluoroethyl)oxazole-4-carboxamide] | 1000 to 10000 nM | 1000 to 10000 nM
2 | CC1(C)CN(c2nc(C(=O)Nc3ccc(OC4CCCC4(F)F)c(F)c3)c(CC(F)(F)F)o2)CCO1 (centres unmarked) [Example 4, N-{4-[(2,2-difluorocyclopentyl)oxy]-3-fluorophenyl}-2-(2,2-dimethylmorpholin-4-yl)-5-(2,2,2-trifluoroethyl)-1,3-oxazole-4-carboxamide] | 1000 to 10000 nM | 10 to 1000 nM
3 | O=C(Nc1ccc(OC2CCCC2(F)F)c(F)c1)c1nc(N2CCOCC2)oc1CC(F)(F)F (centres unmarked) [Example 6, N-(4-((2,2-difluorocyclopentyl)oxy)-3-fluorophenyl)-2-morpholino-5-(2,2,2-trifluoroethyl)oxazole-4-carboxamide] | 1000 to 10000 nM | 10 to 1000 nM
4 | O=C(Nc1ccc(OC2CCCC2(F)F)c(F)c1)c1nc(N2CCC3(CCOC3)C2)oc1CC(F)(F)F (centres unmarked) [Example 13, N-(4-((2,2-difluorocyclopentyl)oxy)-3-fluorophenyl)-2-(2-oxa-7-azaspiro[4.4]nonan-7-yl)-5-(2,2,2-trifluoroethyl)oxazole-4-carboxamide] | 1000 to 10000 nM | 1000 to 10000 nM
5 | O=C(Nc1ccc(OC2CCCC2(F)F)c(F)c1)c1nc(N2CCC3(CCC3)C2)oc1CC(F)(F)F (centres unmarked) [Example 15, N-(4-((2,2-difluorocyclopentyl)oxy)-3-fluorophenyl)-2-(6-azaspiro[3.4]octan-6-yl)-5-(2,2,2-trifluoroethyl)oxazole-4-carboxamide] | 10 to 1000 nM | 10 to 1000 nM
6 | O=C(Nc1ccc(OC2CCCC2(F)F)c(F)c1)c1nc(N2CC3(C2)CC(F)(F)C3)oc1CC(F)(F)F (centres unmarked) [Example 17, 2-(6,6-difluoro-2-azaspiro[3.3]heptan-2-yl)-N-(4-((2,2-difluorocyclopentyl)oxy)-3-fluorophenyl)-5-(2,2,2-trifluoroethyl)oxazole-4-carboxamide] | 10 to 1000 nM | 10 to 1000 nM
7 | O=C(Nc1ccc(OC2CCCC2(F)F)c(F)c1)c1nc(N2CCC3(COC3)C2)oc1CC(F)(F)F (centres unmarked) [Example 19, N-{4-[(2,2-difluorocyclopentyl)oxy]-3-fluorophenyl}-2-{2-oxa-6-azaspiro[3.4]octan-6-yl}-5-(2,2,2-trifluoroethyl)oxazole-4-carboxamide] | 10 to 1000 nM | 10 to 1000 nM
8 | CC1(C)CN(c2nc(C(=O)Nc3ccc(OC4CCCC4(F)F)c(F)c3)c(CC(F)(F)F)o2)C1 (centres unmarked) [Example 20, N-(4-((2,2-difluorocyclopentyl)oxy)-3-fluorophenyl)-2-(3,3-dimethylazetidin-1-yl)-5-(2,2,2-trifluoroethyl)oxazole-4-carboxamide] | 10 to 1000 nM | 10 to 1000 nM
9 | O=C(Nc1ccc(OC2CCCC2(F)F)c(F)c1)c1nc(N2CCC3(CC3)C2)oc1CC(F)(F)F (centres unmarked) [Example 21, N-(4-((2,2-difluorocyclopentyl)oxy)-3-fluorophenyl)-2-(5-azaspiro[2.4]heptan-5-yl)-5-(2,2,2-trifluoroethyl)oxazole-4-carboxamide] | 10 to 1000 nM | 10 to 1000 nM
10 | O=C(Nc1cc(F)c(OC2CC3C[C@@H]3C2)c(F)c1)c1nc(N2CC3(CCOCC3)C2)oc1CC(F)(F)F (stereo partly drawn) [Example 188, N-(4-(cis-bicyclo[3.1.0]hexan-3-yloxy)-3,5-difluorophenyl)-2-(7-oxa-2-azaspiro[3.5]nonan-2-yl)-5-(2,2,2-trifluoroethyl)oxazole-4-carboxamide] |  | 10 to 1000 nM
11 | O=C(Nc1cc(F)c(OC2CC3C[C@H]3C2)c(F)c1)c1nc(N2CC3(CCOC3)C2)oc1CC(F)(F)F (stereo partly drawn) [Example 189, N-(4-(cis-bicyclo[3.1.0]hexan-3-yloxy)-3,5-difluorophenyl)-2-(6-oxa-2-azaspiro[3.4]octan-2-yl)-5-(2,2,2-trifluoroethyl)oxazole-4-carboxamide] |  | 10 to 1000 nM
12 | CCc1oc(N2CC(CC)(CO)C2)nc1C(=O)Nc1cc(F)c(OC2CC3C[C@H]3C2)c(Cl)c1 (stereo partly drawn) [Example 220, N-(4-(cis-bicyclo[3.1.0]hexan-3-yloxy)-3-chloro-5-fluorophenyl)-5-ethyl-2-(3-ethyl-3-(hydroxymethyl)azetidin-1-yl)oxazole-4-carboxamide] |  | 10 to 1000 nM
13 | CCc1oc(N2CCCC2)nc1C(=O)Nc1cc(F)c(OC2CC3C[C@H]3C2)c(Cl)c1 (stereo partly drawn) [Example 222, N-(4-(cis-bicyclo[3.1.0]hexan-3-yloxy)-3-chloro-5-fluorophenyl)-5-ethyl-2-(pyrrolidin-1-yl)oxazole-4-carboxamide] |  | 10 to 1000 nM
14 | CCc1oc(N2CC(C)(OC)C2)nc1C(=O)Nc1cc(C)c(OC2CC3C[C@H]3C2)c(F)c1 (stereo partly drawn) [Example 226, N-(4-(cis-bicyclo[3.1.0]hexan-3-yloxy)-3-fluoro-5-methylphenyl)-5-ethyl-2-(3-methoxy-3-methylazetidin-1-yl)oxazole-4-carboxamide] |  | 10 to 1000 nM
15 | CCCc1oc(N2CCCC2)nc1C(=O)Nc1cc(F)c(OC2CC3C[C@H]3C2)c(F)c1 (stereo partly drawn) [Example 274, N-(4-(cis-bicyclo[3.1.0]hexan-3-yloxy)-3,5-difluorophenyl)-5-propyl-2-(pyrrolidin-1-yl)oxazole-4-carboxamide] |  | 10 to 1000 nM

Now from value to molecule, other results behind:

Row | EC50 (TRPML1) | SMILES | EC50 (TFEB)
16 | 10 to 1000 nM | O=C(Nc1ccc(OC2COCC2(F)F)c(F)c1)c1nc(N2CCCC2)oc1CC(F)(F)F (racemic) [Example 71, N-(4-((4,4-difluorotetrahydrofuran-3-yl)oxy)-3-fluorophenyl)-2-(pyrrolidin-1-yl)-5-(2,2,2-trifluoroethyl)oxazole-4-carboxamide] | 10 to 1000 nM
17 | 10 to 1000 nM | O=C(Nc1ccc(OC2CCCC2(F)F)c(F)c1)c1nc(N2CCCC2)oc1CC(F)(F)F (centres unmarked) [Example 22, N-{4-[(2,2-difluorocyclopentyl)oxy]-3-fluorophenyl}-2-(pyrrolidin-1-yl)-5-(2,2,2-trifluoroethyl)oxazole-4-carboxamide] | 10 to 1000 nM
18 | 1000 to 10000 nM | O=C(Nc1ccc(N2CCCCC2)c(F)c1)c1nc(N2CCC3(C2)CC(F)(F)C3)oc1CC(F)(F)F [Example 28, 2-(2,2-difluoro-6-azaspiro[3.4]octan-6-yl)-N-(3-fluoro-4-(piperidin-1-yl)phenyl)-5-(2,2,2-trifluoroethyl)oxazole-4-carboxamide] | 1000 to 10000 nM
19 | 1000 to 10000 nM | CCC1(CC)CN(c2nc(C(=O)Nc3cc(C)c4c(c3)CCN4C3CC4CC4C3)c(CC(F)(F)F)o2)C1 (centres unmarked) [Example 310, N-(1-(bicyclo[3.1.0]hexan-3-yl)-7-methylindolin-5-yl)-2-(3,3-diethylazetidin-1-yl)-5-(2,2,2-trifluoroethyl)oxazole-4-carboxamide] | 
20 | 1000 to 10000 nM | CCC1(CC)CN(c2nc(C(=O)Nc3cc(F)c4c(c3)CCN4C3CC4CC4C3)c(CC(F)(F)F)o2)C1 (centres unmarked) [Example 311, N-(1-(bicyclo[3.1.0]hexan-3-yl)-7-fluoroindolin-5-yl)-2-(3,3-diethylazetidin-1-yl)-5-(2,2,2-trifluoroethyl)oxazole-4-carboxamide] | 
21 | 1000 to 10000 nM | COC1(C)CN(c2nc(C(=O)Nc3cc(F)c4c(c3)CCN4C3CC4CC4C3)c(CC(F)(F)F)o2)C1 (centres unmarked) [Example 312, N-(1-(bicyclo[3.1.0]hexan-3-yl)-7-fluoroindolin-5-yl)-2-(3-methoxy-3-methylazetidin-1-yl)-5-(2,2,2-trifluoroethyl)oxazole-4-carboxamide] | 
22 | 1000 to 10000 nM | CCC1(OC)CN(c2nc(C(=O)Nc3cc(F)c4c(c3)CCN4C3CC4CC4C3)c(CC(F)(F)F)o2)C1 (centres unmarked) [Example 313, N-(1-(bicyclo[3.1.0]hexan-3-yl)-7-fluoroindolin-5-yl)-2-(3-ethyl-3-methoxyazetidin-1-yl)-5-(2,2,2-trifluoroethyl)oxazole-4-carboxamide] | 
23 | 1000 to 10000 nM | O=C(Nc1cc(F)c2c(c1)CCN2C1CC2CC2C1)c1nc(N2CCC3(COC3)C2)oc1CC(F)(F)F (centres unmarked) [Example 314, N-(1-(bicyclo[3.1.0]hexan-3-yl)-7-fluoroindolin-5-yl)-2-(2-oxa-6-azaspiro[3.4]octan-6-yl)-5-(2,2,2-trifluoroethyl)oxazole-4-carboxamide] | 
